Assay results published in patent US12558352B2, “Use of malic enzyme 1 (ME1) in preparation of drug for preventing and treating pulmonary hypertension (PH)” (Institute of Basic Medical Sciences, CAMS, priority 2022, dated 2026).

What was measured:
[1] = molecular target: T1, ME1 (Mus musculus, UniProt P06801); assay: Dose-finding: inhibition of ME1 enzymatic activity in lung tissue of normoxia mice after single intraperitoneal injection; assay type: in vivo; conditions: dose greater than or equal to 100 mg/kg (doses tested 1, 10, 100, 200, 500 mg/kg)
T1 construct: from tissue; host or cells: mouse lung tissue (normoxia mice, lysate after intraperitoneal dosing)
T1 sequence (P06801 1-572): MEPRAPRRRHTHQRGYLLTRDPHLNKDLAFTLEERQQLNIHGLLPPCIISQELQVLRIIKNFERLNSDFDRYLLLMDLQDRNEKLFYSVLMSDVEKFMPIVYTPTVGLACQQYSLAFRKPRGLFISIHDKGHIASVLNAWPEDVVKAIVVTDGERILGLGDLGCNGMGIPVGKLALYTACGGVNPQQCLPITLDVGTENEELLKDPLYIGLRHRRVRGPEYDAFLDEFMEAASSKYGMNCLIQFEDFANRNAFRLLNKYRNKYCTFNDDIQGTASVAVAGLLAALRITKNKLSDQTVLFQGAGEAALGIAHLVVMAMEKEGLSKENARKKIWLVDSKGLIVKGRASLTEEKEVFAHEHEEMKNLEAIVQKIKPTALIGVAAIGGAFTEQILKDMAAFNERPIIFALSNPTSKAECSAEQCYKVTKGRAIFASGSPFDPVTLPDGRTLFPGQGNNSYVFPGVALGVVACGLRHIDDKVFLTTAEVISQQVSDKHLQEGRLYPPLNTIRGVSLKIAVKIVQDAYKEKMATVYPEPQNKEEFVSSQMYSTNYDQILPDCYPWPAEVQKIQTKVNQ
Experimental: Histone supernatants or mitochondrial extracts were used to detect ME1 enzymatic activity. (1) Liquid preparation: an ME1 reaction buffer (pH=7.4) was prepared from 67 mM triethanolamine and 5.0 mM manganese chloride. (2) Sample preparation: a protein lysate was centrifuged at 13,000 rpm for 15 min at 4° C. (3) Adding samples: a reaction system included ME1 reaction buffer+L-malic acid (3.3 mM)+β-NADP^+ (0.3 mM)+protein lysate, with a total volume of 150 μL. (4) Reading was done with a multi-functional microplate reader, at a reading temperature maintained at 37° C., and an absorbance value was monitored at a wavelength of 340 nm every 50 s for a total of 30 min. (5) The protein concentration was determined for standardization. (6) The change of absorbance per mg of protein per unit time was calculated. In the present disclosure, normoxia mice are intraperitoneally injected with ME1*, at single injection doses of 1, 10, 100, 200, and 500 mg/kg, respectively, to explore the inhibitory effect of ME1* on the enzymatic activity of ME1 in mouse lung tissues.

[2] = test system: SuHx-induced PH mice; assay: Preventive treatment of SuHx-induced PH mice; assay type: in vivo, mouse; conditions: compared with vehicle
Experimental: 8 to 10 week-old SPF-grade C57BL/6J male mice weighing 25 g to 30 g were fed in a hypoxia chamber (an oxygen concentration in the chamber was maintained at 10%) while receiving weekly subcutaneous injections of 20 mg/kg of SU5416 for 0 weeks (n=8), 1 week (n=8), 2 weeks (n=8), and 3 weeks (n=8). The mouse lung tissues were collected and assessed for RVSP and RVHI and analyzed for PAMT.
The RVSP can be used to evaluate a pulmonary artery pressure (PAP) of the mouse, and the RVHI can reflect the right ventricular involvement and right ventricular hypertrophy of the mouse due to excessive PVR. The specific operation steps were as follows: (1) After anesthetized with 2% pentobarbital sodium (50 mg/kg by intraperitoneal injection), the mice were fixed on an operating board. (2) Power Lab was started and then connected to a pressure transducer. (3) The skin of the anterior chest wall of the mouse was cut with surgical scissors to clearly expose the position of manubrium sternum. (4) A 22-gauge needle was inserted into the right ventricle (RV) at 45° along an intersection point of the manubrium sternum and the left costal margin through the closed chest, and a position of the needle tip in the heart cavity was determined by the waveform; a stable RVSP waveform was saved and an RVSP measured value were recorded through Chart program. (5) The mice were sacrificed to obtain the heart; excess connective tissue and appendages in the heart were removed, and a free wall of the right ventricle was cut; the right ventricle, left ventricle, and interventricular septum (Left ventricular+septum, LV+S) were weighed to calculate RVHI=RV/LV+S.
PAMT is used to analyze the morphological changes of pulmonary vessels. In the present disclosure, a primary antibody of α-smooth muscle actin (α-SMA), a surface marker of pulmonary vascular smooth muscle cells, was stained by immunohistochemistry, and then a percentage of PAMT was calculated to evaluate the pulmonary vascular remodeling of PH mice. […] After deparaffinized and antigen retrieval (a pH of citric acid buffer was 6.0), the section was incubated with a primary antibody against α-SMA at 4° C. overnight, and then incubated with a horseradish peroxidase-bound secondary antibody. After counterstained with hematoxylin, cell nuclei were rinsed with tap water and differentiated with 0.5% […], soaked in tap water for 15 min, routinely dehydrated, subjected to transparent treatment, sealed with glycerogelatin and photographed. Statistical analysis: pulmonary vessel thickness was measured with a diameter of (0-50) μm and (50-100) μm. At least 20 vessels with a diameter of (0-50) μm and at least 15 vessels with a diameter of (50-100) μm were assessed per mouse, and the PAMT percentage was calculated as: (outer circumference/2π-inner circumference/2π)/(outer circumference/2π)×100.
Echocardiography was conducted using a Vevo 2100 ultrasound imaging platform to evaluate the dynamic changes of blood flow in the right heart of PH mice. (1) The mice were depilated to fully expose the skin on the chest wall. (2) The mice were placed on a constant-temperature heating plate at 37° C., anesthetized with 3.0% isoflurane through the nose and mouth, and the inhalation was continued with 1.5% isoflurane after the mice were anesthetized. (3) The mice were smeared with a small amount of coupling agent on their limbs and the limbs were fixed, and dynamic changes of the body temperature, heart rate, respiration rate, and electrocardiogram for mice were continuously recorded, while ensuring that the mice were in a resting state. (4) The ultrasound probe was placed, an appropriate amount of coupling agent was added, the pulmonary artery acceleration time (PAAT), pulmonary artery ejection time (PAET), and velocity-time integral were determined at a short-axis position, and then obtained frequency spectrum was saved and added with color ultrasound. […]

[3] = Safety evaluation of preventive treatment (body weight, HE staining of organs); assay type: in vivo, mouse; conditions: 100 mg/kg intraperitoneally once a day
Experimental: Male SPF-grade C57BL/6J mice aged 8 to 10 weeks with a body weight of 25 g to 30 g were randomly divided into the following 4 groups: • (1) Normoxia+vehicle control group: 6 mice were fed in a normoxia environment for 3 weeks; from the second week, the mice were intraperitoneally injected with vehicle (100 mg/kg) once a day, for a total of 14 injections. • (2) Normoxia+ME1* treatment group: 6 mice were fed in a normoxia environment for 3 weeks; from the second week, the mice were intraperitoneally injected with ME1* (100 mg/kg) once a day, for a total of 14 injections. • (3) SuHx modeling+vehicle control group: 10 mice were treated with SuHx for 3 weeks (SuHx modeling method was the same as above); from the second week, the mice were intraperitoneally injected with vehicle (100 mg/kg) once a day, for a total of 14 injections. • (4) SuHx modeling+ME1* treatment group: 10 mice were treated with SuHx for 3 weeks; from the second week, the mice were intraperitoneally injected with ME1* (100 mg/kg) once a day, for a total of 14 injections. […]

[4] = 100 mg/kg intraperitoneally once a day, 14 injections
[5] = echocardiography, 100 mg/kg intraperitoneally once a day

enzymatic activity of ME1 in mouse lung tissue [1]: significantly inhibited
SMILES: O=C1CC(N2CCN(c3ccc(O)cc3)CC2)C(=O)N1c1ccccc1 (stereo not drawn) [ME1*]
progression of PH ([2]; 100 mg/kg intraperitoneally once a day from second week, 14 injections): significantly slowed
RVHI (%) [2, 4]: significantly lower
RVSP [2, 4]: significantly lower
PA AT/ET [2, 5]: significantly higher
TAPSE [2, 5]: significantly higher
PAMT percentage ([2]; pulmonary artery diameters 0-50 μm and 50-100 μm, 100 mg/kg intraperitoneally once a day): significantly lower
tissue and organ damage (HE staining of lung, heart, liver, spleen, kidney, small intestine) ([3]; after the treatment, 14 injections): no obvious tissue and organ damage
body weight of the mice ([3]; weighed every week, compared with vehicle group): not significantly reduced
